In patent publication US10238658B2, “1-pyrazolyl-3-(4-((2-anilinopyrimidin-4-yl) oxy) napththalen-1-yl) ureas as p38 MAP kinase inhibitors” (Respivert Limited, priority 2011, dated 2019):

How the values were obtained:
Assay type in all cases: cell-based
IL-8 [1] = test: LPS-induced IL-8 release in d-U937 cells; conditions: Homo sapiens, dU937, dU937 cells
Procedure: (§1) U937 cells, a human monocytic cell line, were differentiated into macrophage-type cells by incubation with PMA (100 ng/mL) for 48 to 72 hr. Cells were pre-incubated with final concentrations of test compound for 2 hr and were then stimulated with LPS (0.1 μg/mL; from E. Coli: O111:B4, Sigma) for 4 hr. The supernatant was collected for determination of TNFα and IL-8 concentrations by sandwich ELISA (Duo-set, R&D systems). […] The relative 50% effective concentration (REC50) was determined from the resultant concentration-response curve. The inhibition of IL-8 production was calculated at each concentration of test compound by comparison with vehicle control.

TNFα [2] = test: LPS-induced TNFα release in THP-1 cells; conditions: Homo sapiens, THP-1, THP1 cells
Procedure: THP-1 cells, a human monocytic cell line, were stimulated with 3 μg/mL of LPS (from E. Coli; 0111:B4, Sigma) for 4 hr and the supernatant collected for determination of the TNFα concentration by sandwich ELISA (Duo-set, R&D systems). The inhibition of TNFα production was calculated at each concentration by comparison with vehicle control.

TNFα [3] = test: LPS-induced TNFα release in d-U937 cells; conditions: Homo sapiens, dU937, dU937 cells; relative to 10 μg/mL BIRB796; read-out: LPS Induced Release TNFα REC50 (dU937)
Procedure: as §1

HRV16 = HRV16 induced CPE in MRC5 cells; conditions: Human rhinovirus sp., HRV16, MRC5, at 0.04 μg/mL; read-out: HRV CPE (MRC5) % inhibition
Procedure: The supernatants were aspirated, and then fresh media added followed by incubation for 4 days. Where appropriate, cells were pre-incubated with compound or DMSO for 2 hr, and the compounds and DMSO added again after washout of the virus.
The percentage inhibition for each well was calculated. The IC50 value was calculated from the concentration-response curve generated by the serial dilutions of the test compounds.

IL-8 [4] = test: Rhinovirus-induced IL-8 release in BEAS2B cells; conditions: Homo sapiens, BEAS-2B, at 0.04 μg/mL; read-out: HRV IL-8 (BEAS2B) % inhibition
Procedure: Human rhinovirus RV16 was obtained from the American Type Culture Collection (Manassas, Va.). Viral stocks were generated by infecting Hela cells with HRV until 80% of the cells were cytopathic.
BEAS2B cells were infected with HRV at an MOI of 5 and incubated for 2 hr at 33° C. with gentle shaking for to promote absorption. The cells were then washed with PBS, fresh media added and the cells were incubated for a further 72 hr. The supernatant was collected for assay of IL-8 concentrations using a Duoset ELISA development kit (R&D systems, Minneapolis, Minn.). […]

PBMC = test: Cell mitosis assay; conditions: Homo sapiens
Procedure: Peripheral blood mononucleocytes (PBMCs) from healthy subjects were separated from whole blood (Quintiles, London, UK) using a density gradient (Histopaque®-1077, Sigma-Aldrich, Poole, UK). The PBMCs (3 million cells per sample) were subsequently treated with 2% PHA (Sigma-Aldrich, Poole, UK) for 48 hr, followed by a 20 hr exposure to varying concentrations of test compounds. At 2 hr before collection, PBMCs were treated with demecolcine (0.1 μg/mL; Invitrogen, Paisley, UK,) to arrest cells in metaphase. To observe mitotic cells, PBMCs were permeabilised and fixed by adding Intraprep (50 μL; Beckman Coulter, France), and stained with anti-phospho-histone 3 ([…]; #9701; Cell Signalling, Danvers, Mass.) and propidium iodide (1 mg/mL; Sigma-Aldrich, Poole, UK,) as previously described (Muehlbauer P. A. and Schuler M. J., Mutation Research, 2003, 537:117-130). Fluorescence was observed using an ATTUNE flow cytometer (Invitrogen, Paisley, UK), gating for lymphocytes.

SMILES | IC50 (IL-8 [1]) [nM] | IC50 (TNFα [2]) [nM] | EC50 (TNFα [3]) [nM] | inhibition at 0.04 µg/mL (HRV16) [%] | inhibition at 0.04 µg/mL (IL-8 [4]) [%] | inhibition at 1 µg/mL (PBMC; read-out: Mitosis Assay % inhibition in PBMC Cells at concn 1 μg/mL) [%] | inhibition at 5 µg/mL (PBMC; read-out: Mitosis Assay % inhibition in PBMC Cells at concn 5 μg/mL) [%]
CC(C)(C)c1cc(NC(=O)Nc2ccc(Oc3ccnc(Nc4ccccc4)n3)c3ccccc23)n(-c2ccc(O)cc2)n1 [Example 3, 1-(3-(tert-butyl)-1-(4-hydroxyphenyl)-1H-pyrazol-5-yl)-3-(4-((2-(phenylamino)pyrimidin-4-yl)oxy)naphthalen-1-yl)urea] | 1.8 | 1.2 | 1.7 | 100 | 100 |  | 
Cc1ccc(-n2nc(C(C)(C)C)cc2NC(=O)Nc2ccc(Oc3ccnc(Nc4ccccc4Cl)n3)c3ccccc23)cc1 [Example 6, 1-(3-(tert-butyl)-1-(p-tolyl)-1H-pyrazol-5-yl)-3-(4-((2-((2-chlorophenyl)amino)pyrimidin-4-yl)oxy)naphthalen-1-yl)urea] | 15 | 225 | 7 |  |  |  | 
Cc1ccc(Nc2nccc(Oc3ccc(NC(=O)Nc4cc(C(C)(C)C)nn4-c4ccc(C)cc4)c4ccccc34)n2)cc1 [Example 11, 1-(3-(tert-butyl)-1-(p-tolyl)-1H-pyrazol-5-yl)-3-(4-((2-(p-tolylamino)pyrimidin-4-yl)oxy)naphthalen-1-yl)urea] | > 1680 | 21 | 35 | 100 | 100 |  | 
COc1cccc(Nc2nccc(Oc3ccc(NC(=O)Nc4cc(C(C)(C)C)nn4-c4ccc(C)cc4)c4ccccc34)n2)c1 [Example 14, 1-(3-(tert-butyl)-1-(p-tolyl)-1H-pyrazol-5-yl)-3-(4-((2-((3-methoxyphenyl)amino)pyrimidin-4-yl)oxy)naphthalen-1-yl)urea] | 1.6 | 2.7 | 2 | 100 | 100 |  | 
Cc1ccc(-n2nc(C(C)(C)C)cc2NC(=O)Nc2ccc(Oc3ccnc(Nc4cccc(F)c4)n3)c3ccccc23)cc1 [Example 15, 1-(3-(tert-butyl)-1-(p-tolyl)-1H-pyrazol-5-yl)-3-(4-((2-((3-fluorophenyl)amino)pyrimidin-4-yl)oxy)naphthalen-1-yl)urea] | 2.3 | 3 | 2.2 | 100 | 100 |  | 
COc1ccc(Nc2nccc(Oc3ccc(NC(=O)Nc4cc(C(C)(C)C)nn4-c4ccc(C)cc4)c4ccccc34)n2)cc1 [Example 17, 1-(3-(tert-butyl)-1-(p-tolyl)-1H-pyrazol-5-yl)-3-(4-((2-((4-methoxyphenyl)amino)pyrimidin-4-yl)oxy)naphthalen-1-yl)urea] | 2.1 | 4.3 | 2 | ≤ 0 | 100 |  | 
Cc1ccc(-n2nc(C(C)(C)C)cc2NC(=O)Nc2ccc(Oc3ccnc(Nc4ccc(O)cc4F)n3)c3ccccc23)cc1 [Example 30, 1-(3-(tert-butyl)-1-(p-tolyl)-1H-pyrazol-5-yl)-3-(4-((2-((2-fluoro-4-hydroxyphenyl)amino)pyrimidin-4-yl)oxy)naphthalen-1-yl)urea] | 3 | 1.6 | 1 | ≤ 0 | 100 |  | 
Cc1ccc(-n2nc(C(C)(C)C)cc2NC(=O)Nc2ccc(Oc3ccnc(Nc4ccc(O)cc4Cl)n3)c3ccccc23)cc1 [Example 31, 1-(3-(tert-butyl)-1-(p-tolyl)-1H-pyrazol-5-yl)-3-(4-((2-((2-chloro-4-hydroxyphenyl)amino)pyrimidin-4-yl)oxy)naphthalen-1-yl)urea] | 32 | 6.1 | 16 | ≤ 0 | 100 |  | 
COCC(=O)Nc1cc(Oc2ccc(NC(=O)Nc3cc(C(C)(C)C)nn3-c3ccc(C)cc3)c3ccccc23)ccn1 [Reference Compound, N-(4-(4-(3-(3-tert-butyl-1-p-tolyl-1H-pyrazol-5-yl)ureido)naphthalen-1-yloxy)pyridin-2-yl)-2-methoxyacetamide, reference compound] |  |  | 0.13 |  |  |  | 

The next lines start with results.

IC50 (IL-8 [1]) [nM] | IC50 (TNFα [2]) [nM] | EC50 (TNFα [3]) [nM] | SMILES | inhibition at 0.04 µg/mL (HRV16) [%] | inhibition at 0.04 µg/mL (IL-8 [4]) [%] | inhibition at 1 µg/mL (PBMC; read-out: Mitosis Assay % inhibition in PBMC Cells at concn 1 μg/mL) [%] | inhibition at 5 µg/mL (PBMC; read-out: Mitosis Assay % inhibition in PBMC Cells at concn 5 μg/mL) [%]
2.3 | 4.6 | 3.1 | Cc1ccc(-n2nc(C(C)(C)C)cc2NC(=O)Nc2ccc(Oc3ccnc(Nc4ccccc4F)n3)c3ccccc23)cc1 [Example 4, 1-(3-(tert-butyl)-1-(p-tolyl)-1H-pyrazol-5-yl)-3-(4-((2-((2-fluorophenyl)amino)pyrimidin-4-yl)oxy)naphthalen-1-yl)urea] | 44 | 100 |  | 
15 | 45 | 15 | Cc1ccc(-n2nc(C(C)(C)C)cc2NC(=O)Nc2ccc(Oc3ccnc(Nc4cc(C)ccc4C)n3)c3ccccc23)cc1 [Example 10, 1-(3-(tert-butyl)-1-(p-tolyl)-1H-pyrazol-5-yl)-3-(4-((2-((2,5-dimethylphenyl)amino)pyrimidin-4-yl)oxy)naphthalen-1-yl)urea] | 100 | 100 |  | 
2.4 | 30 | 2 | Cc1ccc(-n2nc(C(C)(C)C)cc2NC(=O)Nc2ccc(Oc3ccnc(Nc4cccc(C)c4)n3)c3ccccc23)cc1 [Example 12, 1-(3-(tert-butyl)-1-(p-tolyl)-1H-pyrazol-5-yl)-3-(4-((2-(m-tolylamino)pyrimidin-4-yl)oxy)naphthalen-1-yl)urea] | 100 | 100 |  | 
> 1620 | 1600 | > 1620 | Cc1ccc(-n2nc(C(C)(C)C)cc2NC(=O)Nc2ccc(Oc3ccnc(Nc4cccc(Cl)c4)n3)c3ccccc23)cc1 [Example 13, 1-(3-(tert-butyl)-1-(p-tolyl)-1H-pyrazol-5-yl)-3-(4-((2-((3-chlorophenyl)amino)pyrimidin-4-yl)oxy)naphthalen-1-yl)urea] | 100 | 100 |  | 
23 | 121 | 18 | Cc1ccc(-n2nc(C(C)(C)C)cc2NC(=O)Nc2ccc(Oc3ccnc(Nc4ccccc4C(C)C)n3)c3ccccc23)cc1 [Example 20, 1-(3-(tert-butyl)-1-(p-tolyl)-1H-pyrazol-5-yl)-3-(4-((2-((2-isopropylphenyl)amino)pyrimidin-4-yl)oxy)naphthalen-1-yl)urea] | ≤ 0 | 100 |  | 
1.5 | 0.4 | 0.84 | COc1cc(Nc2nccc(Oc3ccc(NC(=O)Nc4cc(C(C)(C)C)nn4-c4ccc(C)cc4)c4ccccc34)n2)ccc1O [Example 25, 1-(3-(tert-butyl)-1-(p-tolyl)-1H-pyrazol-5-yl)-3-(4-((2-((4-hydroxy-3-methoxyphenyl)amino)pyrimidin-4-yl)oxy)naphthalen-1-yl)urea] |  | 100 | 29.1 | 63.5
18 | 0.4 | 14 | COc1ccc(Nc2nccc(Oc3ccc(NC(=O)Nc4cc(C(C)(C)C)nn4-c4ccc(C)cc4)c4ccccc34)n2)cc1Cl [Example 28, 1-(3-(tert-butyl)-1-(p-tolyl)-1H-pyrazol-5-yl)-3-(4-((2-((3-chloro-4-methoxyphenyl)amino)pyrimidin-4-yl)oxy)naphthalen-1-yl)urea] | 54 | 100 |  | 
